Reference: patent US12521396B2, “Pharmaceutical compositions comprising a MENIN inhibitor” (Kura Oncology, Inc., priority 2023, dated 2026)

How the values were obtained:
[1] = Excipient compatibility and formulation stability studies; assay type: physicochemical; conditions: excipient compatibility studies for tablet formulations
Description: Compound 1 drug substance may have a low bulk density, small particle size, and needle-like morphology, all leading to poor flowability. Dry granulation using roller compaction was improved the powder flow and bulk density characteristics to enable capsule-filling. In addition, while glidants such as talc and colloidal silicon dioxide were not effective in improving powder flow and bulk density characteristics, mannitol and microcrystalline cellulose fillers improved the blend flow in the roller compactor.
In particular, these studies indicated less risk of instability in the presence of lactose as a diluent compared to mannitol.

[2] = Solid form stability on standing after recrystallization from MEK/IPA; assay type: physicochemical; conditions: recrystallized from MEK/IPA at 40° C., filtered at 25° C.
Procedure: Preparation A: Amorphous Compound 1 (prepared as described in U.S. Pat. No. 10,781,218, which is herein incorporated by reference in its entirety) was dissolved in 1:1 MEK/IPA v/v (4.5 mL/g) at ˜50-65° C. under N2. The solution was cooled to 33-37° C. Seed crystals were added (0.8-1.2 wt % relative to Compound 1) and the mixture was stirred for 4-6 h at 33-37° C. The mixture was cooled to 23-27° C. over 3-4 hours and stirred for 16-24 hours. Isopropanol (8.6-9.1 mL/g Compound 1) was added at 23-27° C. over 9-11 hours and then the mixture was stirred for 5-6 hours. The mixture was cooled to 3-8° C. over 4-6 hours and stirred for at least 24 hours. The resulting solid precipitate was collected at 5° C. The filter cake was rinsed with IPA (1.8-2.1 mL/g Compound 1) at 3-8° C. and dried under vacuum at 45-55° C. for 24-32 hours. XRPD analysis confirmed the isolated material as crystalline Compound 1, Form 1. Purity of 99.5% by HPLC and total residual solvents was about 0.4% wt by ^1H NMR. Recrystallization of Compound 1, Form 1, in MEK/IPA (6 v/12 v) by dissolving in MEK and adding IPA in portions at 25° C., stirring the suspension after addition of each IPA portion, cooling to 5° C., and stirring at 5° C. for 20 h produced a wet cake that was a mixture of two crystalline forms (Form 2 and Form 5) that were not Form 1. […]

SMILES	Stability of Compound 1 with excipients [1]	Solid form stability upon standing [2]
CNc1nc(NC2CCN(Cc3ccc4c(cc(C#N)n4C[C@H](C)N4CCN(S(C)(=O)=O)CC4)c3C)CC2)c2cc(CC(F)(F)F)sc2n1 [Compound 1, (S)-4-methyl-5-((4-((2-(methylamino)-6-(2,2,2-trifluoroethyl)thieno[2,3-d]pyrimidin-4-yl)amino)piperidin-1-yl)methyl)-1-(2-(4-(methylsulfonyl)piperazin-1-yl)propyl)-1H-indole-2-carbonitrile]	impact to Compound 1 stability with certain excipients	–
CNc1nc(NC2CCN(Cc3ccc4c(cc(C#N)n4C[C@H](C)N4CCN(S(C)(=O)=O)CC4)c3C)CC2)c2cc(CC(F)(F)F)sc2n1 [Form 1, (S)-4-methyl-5-((4-((2-(methylamino)-6-(2,2,2-trifluoroethyl)thieno[2,3-d]pyrimidin-4-yl)amino)piperidin-1-yl)methyl)-1-(2-(4-(methylsulfonyl)piperazin-1-yl)propyl)-1H-indole-2-carbonitrile]	–	converted to Form 5
